Data taken from patent US11649475B2, “Dioxetane compounds and their use for the detection of microorganisms” (NEMIS Technologies AG, priority 2018, dated 2023).
Like-named read-outs stand apart in the source and are kept apart here.

Experiments:
[1] = test system: Escherichia coli ATCC 25922; assay: Luminescence of culture samples after addition of Compound Va with 15% v/v ethanol; type: cell-based; details: for Signal to noise ratio, LB1:20 (to sterile) / RLU, 6 h LB / RLU, 6 h LB1:20: E.c.; for RLU, 6 h LB / RLU, 6 h LB1:20: 20 μM, 15% v/v ethanol, 9-10 min after addition
Method: (§1) Escherichia coli ATCC 25922 (E.c., beta-galactosidase positive) and Salmonella Enteritidis RKI 05/07992 (S.E., beta-galactosidase negative) were cultivated in Nutrient Broth for 17 h and then serially diluted in sterile saline (0.9% NaCl). Diluted cell suspensions were inoculated 1:100 v/v in test tubes with either full-strength LB medium (10 g/L tryptone, 5 g/L yeast extract, 5 g/L NaCl) or LB medium diluted 1:20 v/v with ultrapure water (LB1:20). All media contained 1 mM IPTG for induction of beta-galactosidase. Sterile saline was added to negative control tubes. After 6 h of cultivation at 37° C. and 150 rpm, samples (0.255 mL) were withdrawn from cultures and mixed with 45 μL stock solution of compound Va in ethanol in a white microtiter plate. […] For comparison, the same E. coli strain was pre-cultured and diluted in a similar way and then inoculated in diluted Mueller-Hinton broth (MH1:20, full-strength medium diluted 1:20 v/v with 20 mM phosphate buffer pH 7.2). The medium was supplemented with 1 mM IPTG. After 6 h of cultivation at 37° C. and 150 rpm, culture samples (45 μL) were transferred to a microtiter plate and mixed with 5 μL of 10x lysis reagent which contained 2% w/v dodecyl-trimethylammonium bromide, 1 mM D-Luciferin-6-O-beta-D-galactopyranoside (commercially available, Biosynth Cat. No. L-8600) and 10 mM magnesium chloride. Lysis and reaction with D-Luciferin-6-O-beta-D-galactopyranoside was carried out for 1 h at 37° C. Then 0.2 mL of luciferase assay mix was added (5:1 v/v). The assay mix contained 62.5 mM Tris acetate (pH 7.8), 12.5 mM magnesium sulfate, 2.5 g/L bovine serum albumin, 7.5 mM D/L-cysteine, 1.25 mM ethylene diamine tetraacetate, 25 μM sodium pyrophosphate, 10 g/L cyclodextrin, 1.25 mM adenosine 5-triphosphate and 13.1 μg/mL commercially available Photinus pyralis luciferase (recombinant). Light emission was recorded with a SpectraMax M5 plate reader.

[2] = test system: Salmonella Enteritidis RKI 05/07992; assay: as above; type: cell-based; details: S.E., inoculation density 10^6 CFU/mL
Method: as §1

[3] = test system: Salmonella Enteritidis RKI 05/07992; assay: Luminescence of cultures containing D-luciferin-6-O-phenyl-caprylate after mixing with luciferase assay mix; type: cell-based, Salmonella enterica ssp. enterica ser. Enteritidis; details: S.E.; for RLU, 6 h: 0.1 mM in Nutrient Broth, first 3 min after luciferase assay mix
Method: D-luciferin-6-O-phenyl-caprylate was synthesized according to procedures known to persons skilled in the art. Salmonella Enteritidis RKI 05/07992 (S.E., Salmonella enterica ssp. enterica ser. Enteritidis, C8 esterase positive) was cultivated in Nutrient Broth (5 g/L peptone, 5 g/L NaCl, 2 g/L […], 1 g/L […], pH 7.4) for 16 h and then serially diluted in sterile saline (0.9% NaCl). Diluted cell suspensions were inoculated 1:100 v/v in test tubes with Nutrient Broth containing 0.1 mM D-luciferin-6-O-phenyl-caprylate. […] Light emission was recorded with a plate reader equipped with a luminescence detection system. Mean RLU (relative light unit) values of first 3 min after addition of luciferase assay mix were compared (Table VII).

[4] = test system: Klebsiella pneumoniae RKI 92/08 (KPC-2); type: cell-based; details: K.p.-Imp^R; for RLU max. (with 10 μM VI): 6 h culture, 30 min recording
Method: (§2) Carbapenem resistant bacterial strains Pseudomonas aeruginosa RKI 48/09 (IMP-2) (P.a.-Imp^R) and Klebsiella pneumoniae RKI 92/08 (KPC-2) (K.p.-Imp^R) were cultivated on trypticase soy agar supplemented with 8 mg/L and […] imipenem, respectively. Carbapenem sensitive strain Escherichia coli ATCC 25922 (E.c.) was cultivated on trypticase soy agar. Nutrient broth (for composition and pH see previous examples, 3 mL in 15 mL tubes) with and without imipenem was inoculated with imipenem resistant and sensitive bacteria from agar plates. Tube cultures were incubated for 6 h at 37° C. and 150 rpm. Culture samples (0.255 mL) were transferred to wells of a white microtiter plate and mixed with 45 μL stock solution of compound Vila in ethanol. Final concentrations of compound Vila, ethanol and dimethyl sulfoxide were 10 μM, […] and 1% v/v, respectively. Luminescence was recorded after addition of […] for 30 min with a plate reader.

[5] = test system: Pseudomonas aeruginosa RKI 48/09 (IMP-2); type: cell-based; details: P.a.-Imp^R; for RLU max. (with 10 μM VI): 6 h culture, 30 min recording
Method: as §2

[6] = test system: Escherichia coli ATCC 25922; assay: Luminescence of culture samples of carbapenem resistant and sensitive bacteria after addition of compound VIIa; type: cell-based; details: E.c.; for RLU max. (with 10 μM VI): 6 h culture, 30 min recording
Method: as §2

[7] = test system: Escherichia coli ATCC 25922; details: E.c.; for Signal to noise ratio (to sterile): MH1:20; for RLU, 6 h MH1:20: first two minutes of measurement
Method: as §1

[8] = inoculation density 10^2 CFU/mL
[9] = inoculation density 10^3 CFU/mL
[10] = inoculation density 10^4 CFU/mL
[11] = inoculation density 10^5 CFU/mL
[12] = inoculation density 10^6 CFU/mL
[13] = 20 μM, 15% v/v ethanol, 9-10 min after addition
[14] = imipenem 4 mg/L in nutrient broth

COC(=O)/C=C/c1ccc(C2(OC)OOC23C2CC4CC(C2)CC3C4)c(Cl)c1OCc1ccc(OC2OC(CO)C(O)C(O)C2O)cc1 (centres unmarked) [Compound Va]
Signal to noise ratio, LB1:20 (to sterile) [1, 8]: 14
RLU, 6 h LB [1, 8]: 551 RLU
RLU, 6 h LB1:20 [1, 8]: 1369 RLU
Signal to noise ratio, LB1:20 (to sterile) [1, 9]: 79
RLU, 6 h LB [1, 9]: 3317 RLU
RLU, 6 h LB1:20 [1, 9]: 7690 RLU
Signal to noise ratio, LB1:20 (to sterile) [1, 10]: 1085
RLU, 6 h LB [1, 10]: 49434 RLU
RLU, 6 h LB1:20 [1, 10]: 105252 RLU
Signal to noise ratio, LB1:20 (to sterile) [1, 11]: 1698
RLU, 6 h LB [1, 11]: 43412 RLU
RLU, 6 h LB1:20 [1, 11]: 164721 RLU
Signal to noise ratio, LB1:20 (to sterile) [1, 12]: 871
RLU, 6 h LB [1, 12]: 18830 RLU
RLU, 6 h LB1:20 [1, 12]: 84511 RLU
signal to noise ratio higher than with D-Luciferin-6-O-beta-D-galactopyranoside ([1]; lowest tested inoculation density of E. coli, 5-fold lower working concentration): 9 fold
Signal to noise ratio, LB1:20 (to sterile) [2]: 1
RLU, 6 h LB [2, 13]: 66 RLU
RLU, 6 h LB1:20 [2, 13]: 125 RLU

CCCCCCCC(=O)Oc1ccc(COc2ccc3nc(C4=N[C@@H](C(=O)O)CS4)sc3c2)cc1 [D-luciferin-6-O-phenyl-caprylate]
Signal to noise ratio (to sterile) [3, 8]: 1.1
RLU, 6 h [3, 8]: 18354 RLU
Signal to noise ratio (to sterile) [3, 10]: 1.6
RLU, 6 h [3, 10]: 27783 RLU
Signal to noise ratio (to sterile) [3, 12]: 24
RLU, 6 h [3, 12]: 417195 RLU

C[C@@H](O)[C@H]1C(=O)N2C(C(=O)O)=C(SCCN=CN)C[C@H]12 [Imipenem, imipenem, reference compound]
OD600 6 h [4, 14]: 0.50
OD600 6 h ([5]; imipenem 8 mg/L in nutrient broth): 0.48
OD600 6 h [6, 14]: 0.01

COC(=O)/C=C/c1ccc(C2(OC)OOC23C2CC4CC(C2)CC3C4)c(Cl)c1OCc1ccc(C2=C(C(=O)O)N3C(=O)[C@H]([C@@H](C)O)[C@H]3[C@H]2C)cc1 (stereo partly drawn) [VIIa, (4S,5R,6S)-3-(4-((2-Chloro-6-((E)-3-methoxy-3-oxoprop-1-en-1-yl)-3-((1r,3r,5S,7S)-4′-methoxyspiro[adamantane-2,3′-[1,2]dioxetan]-4′-yl)phenoxy)methyl)phenyl)-6-((R)-1-hydroxyethyl)-4-methyl-7-oxo-1-azabicyclo[3.2.0]hept-2-ene-2-carboxylicacid]
Signal to noise ratio (to E.c.) ([4]; imipenem 0 mg/L): 8.9
RLU max. (with 10 μM VI) ([4]; imipenem 0 mg/L): 72951 RLU
Signal to noise ratio (to E.c.) ([4]; imipenem 4 mg/L): 8.8
RLU max. (with 10 μM VI) ([4]; imipenem 4 mg/L): 72272 RLU
Signal to noise ratio (to E.c.) ([5]; imipenem 0 mg/L): 2.4
RLU max. (with 10 μM VI) ([5]; imipenem 0 mg/L): 19940 RLU
Signal to noise ratio (to E.c.) ([5]; imipenem 8 mg/L): 2.6
RLU max. (with 10 μM VI) ([5]; imipenem 8 mg/L): 21028 RLU
RLU max. (with 10 μM VI) ([6]; imipenem 0 mg/L): 8181 RLU
RLU max. (with 10 μM VI) ([6]; imipenem 4 mg/L): 7992 RLU

D-Luciferin-6-O-beta-D-galactopyranoside
Signal to noise ratio (to sterile) [7, 8]: 1.5
RLU, 6 h MH1:20 [7, 8]: 13367 RLU
Signal to noise ratio (to sterile) [7, 10]: 377
RLU, 6 h MH1:20 [7, 10]: 3306967 RLU
Signal to noise ratio (to sterile) [7, 12]: 544
RLU, 6 h MH1:20 [7, 12]: 4777613 RLU
